Assay results: patent publication US10131652B2, “Pyrimidinyloxy benzene derivatives as herbicides” (E. I. DU PONT DE NEMOURS AND COMPANY, priority 2014, dated 2018)
Read-outs that look alike come from different tables or passages of the source.

Columns and labels:
Test in all cases: Test D pre-/postemergence plant response
Assay type in all cases: in vivo
[1] = tested on: waterhemp (common waterhemp, Amaranthus rudis); conditions: Amaranthus tuberculatus; for pest or weed control at 31 g/ha: 31 g ai/ha; for pest or weed control at 62 g/ha: 62 g ai/ha; for pest or weed control at 125 g/ha: 125 g ai/ha
Summary of the method: (§1)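 Test chemicals were formulated in a non-phytotoxic solvent mixture containing surfactant and applied either preemergence to seeds in loam–sand soil or postemergence to plants 2 to 18 cm tall (1- to 4-leaf stage). Response was rated visually against controls after 13 to 15 days, from 0 (none) to 100 (complete control).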

[2] = tested on: oilseed rape (Brassica napus); conditions: Brassica napus; for plant injury at 31 g/ha: 31 g ai/ha; for plant injury at 62 g/ha: 62 g ai/ha; for plant injury at 125 g/ha: 125 g ai/ha
Summary of the method: as §1

[3] = tested on: Italian ryegrass (Lolium multiflorum); conditions: Lolium multiflorum; for pest or weed control at 31 g/ha: 31 g ai/ha; for pest or weed control at 62 g/ha: 62 g ai/ha; for pest or weed control at 125 g/ha: 125 g ai/ha
Summary of the method: as §1

[4] = tested on: velvetleaf (Abutilon theophrasti); conditions: Abutilon theophrasti; for pest or weed control at 31 g/ha: 31 g ai/ha; for pest or weed control at 62 g/ha: 62 g ai/ha; for pest or weed control at 125 g/ha: 125 g ai/ha
Summary of the method: as §1

[5] = tested on: barnyardgrass (Echinochloa crus-galli); conditions: Echinochloa crus-galli; for pest or weed control at 16 g/ha: 16 g ai/ha; for pest or weed control at 31 g/ha: 31 g ai/ha; for pest or weed control at 62 g/ha: 62 g ai/ha; for pest or weed control at 125 g/ha: 125 g ai/ha
Summary of the method: as §1

[6] = tested on: blackgrass (Alopecurus myosuroides); conditions: Alopecurus myosuroides; for pest or weed control at 16 g/ha: 16 g ai/ha; for pest or weed control at 31 g/ha: 31 g ai/ha; for pest or weed control at 62 g/ha: 62 g ai/ha; for pest or weed control at 125 g/ha: 125 g ai/ha
Summary of the method: as §1

corn (Zea mays) = conditions: Zea mays; for Corn plant response rating (crop injury, 0 = no effect, 100 = complete kill) at 62 g/ha: 62 g ai/ha
Summary of the method: as §1

[7] = tested on: johnsongrass (Sorghum halepense); conditions: Sorghum halepense; for pest or weed control at 31 g/ha: 31 g ai/ha; for pest or weed control at 62 g/ha: 62 g ai/ha; for pest or weed control at 125 g/ha: 125 g ai/ha
Summary of the method: as §1

[8] = tested on: pigweed (Amaranthus retroflexus); conditions: Amaranthus retroflexus; for pest or weed control at 31 g/ha: 31 g ai/ha; for pest or weed control at 125 g/ha: 125 g ai/ha
Summary of the method: as §1

[9] = post-emergence, Postemergence, scale 0 to 100, 0 no effect, 100 complete control, read-out: Plant response rating, Waterhemp
[10] = pre-emergence, Preemergence, scale 0 to 100 (0 no effect, 100 complete control), read-out: Plant response rating, Waterhemp
[11] = post-emergence, Postemergence, scale 0 to 100, 0 no effect, 100 complete control, read-out: Plant response rating, Oilseed Rape
[12] = pre-emergence, Preemergence, scale 0 to 100 (0 no effect, 100 complete control), read-out: Plant response rating, Oilseed Rape
[13] = post-emergence, Postemergence, scale 0 to 100, 0 no effect, 100 complete control, read-out: Plant response rating, Ryegrass, Italian
[14] = pre-emergence, Preemergence, scale 0 to 100 (0 no effect, 100 complete control), read-out: Plant response rating, Ryegrass, Italian
[15] = post-emergence, Postemergence, scale 0 to 100, 0 no effect, 100 complete control, read-out: Plant response rating, Velvetleaf
[16] = pre-emergence, Preemergence, scale 0 to 100 (0 no effect, 100 complete control), read-out: Plant response rating, Velvetleaf
[17] = post-emergence, Postemergence, scale 0 to 100 (0 no effect, 100 complete control), read-out: Barnyardgrass plant response rating
[18] = post-emergence, Postemergence, scale 0 to 100, 0 no effect, 100 complete control, read-out: Plant response rating, Barnyardgrass
[19] = pre-emergence, Preemergence, scale 0 to 100 (0 no effect, 100 complete control), read-out: Plant response rating, Barnyardgrass
[20] = post-emergence, Postemergence, scale 0 to 100 (0 no effect, 100 complete control), read-out: Blackgrass plant response rating
[21] = post-emergence, Postemergence, scale 0 to 100, 0 no effect, 100 complete control, read-out: Plant response rating, Blackgrass
[22] = pre-emergence, Preemergence, scale 0 to 100 (0 no effect, 100 complete control), read-out: Plant response rating, Blackgrass
[23] = post-emergence, Postemergence, scale 0 to 100, 0 no effect, 100 complete control, read-out: Plant response rating, Johnsongrass
[24] = pre-emergence, Preemergence, scale 0 to 100 (0 no effect, 100 complete control), read-out: Plant response rating, Johnsongrass

Fc1cccc(Oc2ncc(Cl)cn2)c1-c1cc(C(F)(F)F)on1 [Compound 168, 5-chloro-2-[2-[5-(trifluoromethyl)-3-isoxazolyl]-3-fluorophenoxy]pyrimidine]
10%: pest or weed control at 62 g/ha [5, 18] | pest or weed control at 16 g/ha [6, 20] | Corn plant response rating (crop injury, 0 = no effect, 100 = complete kill) at 62 g/ha (corn (Zea mays); post-emergence, Postemergence, scale 0 to 100, 0 no effect, 100 complete control)
5%: pest or weed control at 31 g/ha ([3]; post-emergence, Postemergence, scale 0 to 100 (0 no effect, 100 complete control), read-out: Ryegrass, Italian plant response rating) | pest or weed control at 62 g/ha [3, 13] | pest or weed control at 16 g/ha [5, 17] | pest or weed control at 31 g/ha [5, 17] | plant injury at 16 g/ha (corn (Zea mays); post-emergence, Postemergence, 16 g ai/ha, scale 0 to 100 (0 no effect, 100 complete control), read-out: Corn plant response rating) | plant injury at 31 g/ha (corn (Zea mays); post-emergence, Postemergence, 31 g ai/ha, scale 0 to 100 (0 no effect, 100 complete control), read-out: Corn plant response rating) | pest or weed control at 31 g/ha ([7]; post-emergence, Postemergence, scale 0 to 100 (0 no effect, 100 complete control), read-out: Johnsongrass plant response rating) | pest or weed control at 62 g/ha [7, 23]
95%: plant injury at 16 g/ha ([2]; pre-emergence, Preemergence, 16 g ai/ha, scale 0 to 100 (0 no effect, 100 complete control), read-out: Plant response rating, Oilseed Rape) | pest or weed control at 125 g/ha ([3]; pre-emergence, Preemergence, read-out: Plant response rating (scale 0 to 100), Ryegrass, Italian) | pest or weed control at 31 g/ha [3, 14] | pest or weed control at 62 g/ha [3, 14] | pest or weed control at 31 g/ha [7, 24] | pest or weed control at 62 g/ha ([8]; post-emergence, Postemergence, 62 g ai/ha, scale 0 to 100, 0 no effect, 100 complete control, read-out: Plant response rating, Pigweed)
0%: Corn plant response rating (crop injury, 0 = no effect, 100 = complete kill) at 16 g/ha (corn (Zea mays); pre-emergence, Preemergence, 16 g ai/ha, scale 0 to 100 (0 no effect, 100 complete control))
20%: pest or weed control at 125 g/ha [6, 21] | Corn plant response rating (crop injury, 0 = no effect, 100 = complete kill) at 125 g/ha (corn (Zea mays); post-emergence, Postemergence, 125 g ai/ha, scale 0 to 100, 0 no effect, 100 complete control) | pest or weed control at 125 g/ha [7, 23]
70%: pest or weed control at 16 g/ha ([3]; pre-emergence, Preemergence, 16 g ai/ha, scale 0 to 100 (0 no effect, 100 complete control), read-out: Plant response rating, Ryegrass, Italian)
100%: pest or weed control at 125 g/ha ([1]; pre-emergence, Preemergence, read-out: Plant response rating (scale 0 to 100), Waterhemp) | pest or weed control at 16 g/ha ([1]; pre-emergence, Preemergence, 16 g ai/ha, scale 0 to 100 (0 no effect, 100 complete control), read-out: Plant response rating, Waterhemp) | pest or weed control at 31 g/ha [1, 10] | pest or weed control at 62 g/ha [1, 10] | plant injury at 31 g/ha ([2]; post-emergence, Postemergence, scale 0 to 100 (0 no effect, 100 complete control), read-out: Oilseed Rape plant response rating) | plant injury at 62 g/ha [2, 11] | plant injury at 125 g/ha [2, 11] | plant injury at 125 g/ha ([2]; pre-emergence, Preemergence, read-out: Plant response rating (scale 0 to 100), Oilseed Rape) | plant injury at 31 g/ha [2, 12] | plant injury at 62 g/ha [2, 12] | pest or weed control at 125 g/ha ([4]; pre-emergence, Preemergence, read-out: Plant response rating (scale 0 to 100), Velvetleaf) | pest or weed control at 31 g/ha [4, 16] | pest or weed control at 62 g/ha [4, 16] | pest or weed control at 125 g/ha ([5]; pre-emergence, Preemergence, read-out: Plant response rating (scale 0 to 100), Barnyardgrass) | pest or weed control at 62 g/ha [5, 19] | pest or weed control at 125 g/ha ([7]; pre-emergence, Preemergence, read-out: Plant response rating (scale 0 to 100), Johnsongrass) | pest or weed control at 125 g/ha ([8]; pre-emergence, Preemergence, read-out: Plant response rating (scale 0 to 100), Pigweed) | pest or weed control at 31 g/ha ([8]; pre-emergence, Preemergence, scale 0 to 100 (0 no effect, 100 complete control), read-out: Plant response rating, Pigweed)
85%: pest or weed control at 16 g/ha ([4]; pre-emergence, Preemergence, 16 g ai/ha, scale 0 to 100 (0 no effect, 100 complete control), read-out: Plant response rating, Velvetleaf) | pest or weed control at 16 g/ha [6, 22] | pest or weed control at 62 g/ha [7, 24] | pest or weed control at 31 g/ha ([8]; post-emergence, Postemergence, scale 0 to 100 (0 no effect, 100 complete control), read-out: Pigweed plant response rating) | pest or weed control at 16 g/ha ([8]; pre-emergence, Preemergence, 16 g ai/ha, scale 0 to 100 (0 no effect, 100 complete control), read-out: Plant response rating, Pigweed)
15%: pest or weed control at 125 g/ha [3, 13] | pest or weed control at 31 g/ha [6, 20] | pest or weed control at 62 g/ha [6, 21] | Corn plant response rating (crop injury, 0 = no effect, 100 = complete kill) at 31 g/ha (corn (Zea mays); pre-emergence, Preemergence, 31 g ai/ha, scale 0 to 100 (0 no effect, 100 complete control))
90%: pest or weed control at 31 g/ha ([1]; post-emergence, Postemergence, scale 0 to 100 (0 no effect, 100 complete control), read-out: Waterhemp plant response rating) | pest or weed control at 125 g/ha [4, 15] | pest or weed control at 125 g/ha ([6]; pre-emergence, Preemergence, read-out: Plant response rating (scale 0 to 100), Blackgrass) | pest or weed control at 31 g/ha [6, 22] | pest or weed control at 62 g/ha [6, 22]
25%: Corn plant response rating (crop injury, 0 = no effect, 100 = complete kill) at 62 g/ha (corn (Zea mays); pre-emergence, Preemergence, scale 0 to 100 (0 no effect, 100 complete control))
75%: pest or weed control at 125 g/ha [5, 18] | pest or weed control at 31 g/ha [5, 19]
35%: pest or weed control at 16 g/ha [5, 19] | pest or weed control at 16 g/ha ([7]; pre-emergence, Preemergence, 16 g ai/ha, scale 0 to 100 (0 no effect, 100 complete control), read-out: Plant response rating, Johnsongrass)
55%: plant injury at 125 g/ha (corn (Zea mays); pre-emergence, Preemergence, 125 g ai/ha, read-out: Plant response rating (scale 0 to 100), Corn)
45%: pest or weed control at 62 g/ha [4, 15]
98%: pest or weed control at 62 g/ha [1, 9] | pest or weed control at 125 g/ha [1, 9] | pest or weed control at 125 g/ha ([8]; post-emergence, Postemergence, scale 0 to 100, 0 no effect, 100 complete control, read-out: Plant response rating, Pigweed)
40%: pest or weed control at 31 g/ha ([4]; post-emergence, Postemergence, scale 0 to 100 (0 no effect, 100 complete control), read-out: Velvetleaf plant response rating)
